Results published in patent US20240279232A1, “USE OF SUBSTITUTED 5-(4-METHYL-6-PHENYL-4H-BENZO[F]IMIDAZO[1,5-A][1,4] DIAZEPIN-3-YL)-1,2,4-O[…] THE TREATMENT OF INFLAMMATORY CONDITIONS” (priority 2021, published 2024).

Assays:
DOR (δ opioid receptor) = molecular target: T1, DOR (δ opioid receptor) (Homo sapiens, UniProt P41143); assay: DOR radioligand binding ([3H]-DADLE, HEK293 cell homogenates); details: for inhibition at 10 µM: Percent inhibition at 10,000 nM, [3H]-DADLE
T1 construct: expressed in transfected cells; host or cells: HEK293

RAW macrophages = assay: Cell viability (CellTiter-Glo), RAW macrophages; assay type: cell-based, mouse; details: for Cell viability (%) RAW macrophages 50 μM: CellTiter-Glo; for toxicity at 50 μM (in words): macrophages
Mouse microglia = assay: NO production (Griess assay), LPS/IFNγ-activated mouse microglia; assay type: cell-based; details: for inhibition at 10 µM / inhibition at 50 µM: Mus musculus, Microglia, 24 h
Swiss Webster mice = assay: Rotarod test; details: for sensorimotor deficits on the rotarod: p.o. at 4-fold the effective dose in the formalin test
5-HT7 = 5-HT7 (Homo sapiens, UniProt P34969); assay: PDSP primary binding 5-HT7; details: PDSP primary screening
Protocol: Because reduction of NO could not be reversed by GABAAR antagonists, the possible binding of MP-IV-010 to other cellular receptors was evaluated in collaboration with the NIMH Psychoactive Drug Screening Program.
Psychoactive Drug Screening Program. Detailed protocols for the primary and secondary radioligand binding assays can be found in the National Institute of Mental Health's Psychoactive Drug Screening Program (NIMH PDSP) Assay Protocol Book. Briefly, primary and secondary radioligand binding assays are carried out in a final of volume of 125 μL per well in appropriate binding buffer. The radioactive ligand concentration is close to the Kd. Total binding and nonspecific binding are determined in the absence and presence of 10 μM of appropriate reference compound, respectively. In brief, plates are usually incubated at room temperature and in the dark for 90 min. Reactions are stopped by vacuum filtration onto 0.3% polyethyleneimine (PEI) soaked 96-well filter mats using a 96-well Filtermate harvester, followed by three washes with cold PBS buffer. Scintillation cocktail is then melted onto the microwave-dried filters on a hot plate and radioactivity counted in a Microbeta counter. The data (n=6) were analyzed by nonlinear regression.

T1 sequence (P41143 whole entry): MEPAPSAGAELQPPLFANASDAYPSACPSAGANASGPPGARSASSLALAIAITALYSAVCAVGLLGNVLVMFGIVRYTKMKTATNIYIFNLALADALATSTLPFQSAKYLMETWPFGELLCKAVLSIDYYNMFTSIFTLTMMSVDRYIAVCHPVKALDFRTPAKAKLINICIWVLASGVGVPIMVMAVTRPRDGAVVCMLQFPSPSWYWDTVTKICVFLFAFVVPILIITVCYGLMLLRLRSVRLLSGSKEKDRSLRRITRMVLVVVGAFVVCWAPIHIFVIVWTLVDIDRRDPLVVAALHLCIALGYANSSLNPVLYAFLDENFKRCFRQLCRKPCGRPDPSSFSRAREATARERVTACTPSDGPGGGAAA
5-HT7, sequence (P34969 whole entry, species assumed): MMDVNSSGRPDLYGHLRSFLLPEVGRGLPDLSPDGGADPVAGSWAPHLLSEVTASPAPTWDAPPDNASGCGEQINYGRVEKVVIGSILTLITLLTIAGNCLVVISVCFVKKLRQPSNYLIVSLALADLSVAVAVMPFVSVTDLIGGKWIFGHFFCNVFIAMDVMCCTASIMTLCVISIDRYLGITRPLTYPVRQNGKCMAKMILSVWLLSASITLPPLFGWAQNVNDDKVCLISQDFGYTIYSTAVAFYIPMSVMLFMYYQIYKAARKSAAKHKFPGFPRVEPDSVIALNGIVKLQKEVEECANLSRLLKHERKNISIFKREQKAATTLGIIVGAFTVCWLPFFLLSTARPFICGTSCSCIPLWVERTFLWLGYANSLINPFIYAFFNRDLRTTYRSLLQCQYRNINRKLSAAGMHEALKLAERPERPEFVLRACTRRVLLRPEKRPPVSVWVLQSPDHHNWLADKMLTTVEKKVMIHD

CCOC(=O)c1ncn2c1[C@@H](C)N=C(c1ccccn1)c1cc(Br)ccc1-2 [GL-II-06] was tested, and the inhibition at 10 µM (DOR (δ opioid receptor)) was 9%, the “Cell viability (%) RAW macrophages 50 μM” value (RAW macrophages) was 100 ± 10% and the inhibition at 10 µM (Mouse microglia) was 14 ± 3%.
With C[C@H]1N=C(c2ccccn2)c2cc(Br)ccc2-n2cnc(C(=O)O)c21 [GL-II-51] the inhibition at 10 µM (DOR (δ opioid receptor)) was 0%, the “Cell viability (%) RAW macrophages 50 μM” value (RAW macrophages) was 100 ± 3% and the inhibition at 10 µM (Mouse microglia) was 9 ± 4%.
With C[C@H]1N=C(c2ccccc2F)c2cc(Br)ccc2-n2cnc(-c3cnco3)c21 [GL-III-36] the inhibition at 10 µM (DOR (δ opioid receptor)) was 12%, the “Cell viability (%) RAW macrophages 50 μM” value (RAW macrophages) was 81 ± 5% and the inhibition at 10 µM (Mouse microglia) was 8 ± 5%. It also gave an inhibition at 50 µM (Mouse microglia) of 41 ± 7%.
In the case of CCOC(=O)c1ncn2c1[C@@H](C)N=C(c1ccccc1F)c1cc(C3CC3)ccc1-2 [GL-III-42], the inhibition at 10 µM (DOR (δ opioid receptor)) is reported as 13%, the “Cell viability (%) RAW macrophages 50 μM” value (RAW macrophages) is reported as 100 ± 6% and the inhibition at 10 µM (Mouse microglia) is reported as 55 ± 12%.
For C[C@H]1N=C(c2ccccc2F)c2cc(Cl)ccc2-n2cnc(C(=O)O)c21 [GL-III-54], the inhibition at 10 µM (DOR (δ opioid receptor)) was 0%, the “Cell viability (%) RAW macrophages 50 μM” value (RAW macrophages) was 99 ± 12% and the inhibition at 10 µM (Mouse microglia) was 31 ± 9%.
In the case of Cc1noc(-c2ncn3c2[C@@H](C)N=C(c2ccccc2F)c2cc(Br)ccc2-3)n1 [GL-III-60, (R)-5-(8-Bromo-6-(2-fluorophenyl)-4-methyl-4H-benzo[f]imidazo[1,5-a][1,4]diazepin-3-yl)-3-methyl-1,2,4-oxadiazole], the inhibition at 10 µM (DOR (δ opioid receptor)) is reported as 18%, the “Cell viability (%) RAW macrophages 50 μM” value (RAW macrophages) is reported as 86 ± 12% and the inhibition at 10 µM (Mouse microglia) is reported as 55 ± 8%. For the same compound, the inhibition at 50 µM (Mouse microglia) was 68 ± 8%.
With Cc1noc(-c2ncn3c2[C@@H](C)N=C(c2ccccc2F)c2cc(C4CC4)ccc2-3)n1 [GL-III-63, (R)-5-(8-Cyclopropyl-6-(2-fluorophenyl)-4-methyl-4H-benzo[f]imidazo[1,5-a][1,4]diazepin-3-yl)-3-methyl-1,2,4-oxadiazole] the inhibition at 10 µM (DOR (δ opioid receptor)) was 31%, the “Cell viability (%) RAW macrophages 50 μM” value (RAW macrophages) was 87 ± 15% and the inhibition at 10 µM (Mouse microglia) was 25 ± 4%. For the same compound, the inhibition at 50 µM (Mouse microglia) was 89 ± 12%.
For C#Cc1ccc2c(c1)C(c1ccccc1F)=N[C@H](C)c1c(C(=O)NC(C)C)ncn1-2 [GL-III-66], the inhibition at 10 µM (DOR (δ opioid receptor)) was 0%, the “Cell viability (%) RAW macrophages 50 μM” value (RAW macrophages) was 100 ± 9% and the inhibition at 10 µM (Mouse microglia) was 13 ± 2%.
For CCNC(=O)c1ncn2c1[C@@H](C)N=C(c1ccccc1F)c1cc(C3CC3)ccc1-2 [GL-III-68], the inhibition at 10 µM (DOR (δ opioid receptor)) was 10%, the “Cell viability (%) RAW macrophages 50 μM” value (RAW macrophages) was 100 ± 8% and the inhibition at 10 µM (Mouse microglia) was 24 ± 5%.
For C[C@H]1N=C(c2ccccc2F)c2cc(Br)ccc2-n2cnc(C(=O)N(C)C)c21 [GL-III-69], the inhibition at 10 µM (DOR (δ opioid receptor)) was 10%, the “Cell viability (%) RAW macrophages 50 μM” value (RAW macrophages) was 98 ± 10% and the inhibition at 10 µM (Mouse microglia) was 37 ± 6%.
C[C@H]1N=C(c2ccccc2F)c2cc(C3CC3)ccc2-n2cnc(C(=O)N(C)C)c21 [GL-III-70] was tested, and the inhibition at 10 µM (DOR (δ opioid receptor)) was 50%, the “Cell viability (%) RAW macrophages 50 μM” value (RAW macrophages) was 100 ± 2% and the inhibition at 10 µM (Mouse microglia) was 32 ± 4%.
C#Cc1ccc2c(c1)C(c1ccccc1F)=N[C@H](C)c1c(-c3cnco3)ncn1-2 [GL-III-73] was tested, and the inhibition at 10 µM (DOR (δ opioid receptor)) was 4%, the “Cell viability (%) RAW macrophages 50 μM” value (RAW macrophages) was 100 ± 4% and the inhibition at 10 µM (Mouse microglia) was 40 ± 3%.
For C[C@@H]1N=C(c2ccccc2F)c2cc(Br)ccc2-n2cnc(-c3cnco3)c21 [GL-III-76], the inhibition at 10 µM (DOR (δ opioid receptor)) was 0%, the “Cell viability (%) RAW macrophages 50 μM” value (RAW macrophages) was 100 ± 5% and the inhibition at 10 µM (Mouse microglia) was 34 ± 1%.
With C#Cc1ccc2c(c1)C(c1ccccc1F)=N[C@@H](C)c1c(-c3cnco3)ncn1-2 [GL-III-78] the inhibition at 10 µM (DOR (δ opioid receptor)) was 9%, the “Cell viability (%) RAW macrophages 50 μM” value (RAW macrophages) was 97 ± 2% and the inhibition at 10 µM (Mouse microglia) was 39 ± 5%.
For CCc1noc(-c2ncn3c2[C@@H](C)N=C(c2ccccc2F)c2cc(C4CC4)ccc2-3)n1 [GL-IV-03, (R)-5-(8-Cyclopropyl-6-(2-fluorophenyl)-4-methyl-4H-benzo[f]imidazo[1,5-a][1,4]diazepin-3-yl)-3-ethyl-1,2,4-oxadiazole], the inhibition at 10 µM (DOR (δ opioid receptor)) was 67%, the “Cell viability (%) RAW macrophages 50 μM” value (RAW macrophages) was 97 ± 7% and the “toxicity at 50 μM (in words)” value (RAW macrophages) was “no significant toxicity”. The “ability of mice to balance on a rotating rod for three minutes” value (Swiss Webster mice; intraperitoneal, 10 and 40 mg/kg) was “did not influence the ability of mice to balance”, the “sensorimotor deficits on the rotarod” value (Swiss Webster mice) was “did not cause any sensorimotor deficits” and the inhibition at 10 µM (Mouse microglia) was 90%.
For C#Cc1ccc2c(c1)C(c1ccccc1F)=N[C@H](C)c1c(C(=O)NC)ncn1-2 [MP-III-022], the inhibition at 10 µM (DOR (δ opioid receptor)) was 22%, the “Cell viability (%) RAW macrophages 50 μM” value (RAW macrophages) was 100 ± 11% and the inhibition at 10 µM (Mouse microglia) was 36 ± 6%. It also gave an inhibition at 50 µM (Mouse microglia) of 60 ± 12%.
With C#Cc1ccc2c(c1)C(c1ccccc1F)=N[C@H](C)c1c(-c3nc(C)no3)ncn1-2 [MP-IV-004] the inhibition at 10 µM (DOR (δ opioid receptor)) was 10%, the “Cell viability (%) RAW macrophages 50 μM” value (RAW macrophages) was 83 ± 12% and the inhibition at 10 µM (Mouse microglia) was 34 ± 5%. The inhibition at 50 µM (Mouse microglia) was 60 ± 6%.
For C#Cc1ccc2c(c1)C(c1ccccc1F)=N[C@H](C)c1c(-c3nc(C(C)C)no3)ncn1-2 [MP-IV-010, (R)-5-(8-ethynyl-6-(2-fluorophenyl)-4-methyl-4H-benzo[f]imidazo[1,5-a][1,4]diazepin-3-yl)-3-isopropyl-1,2,4-oxadiazole], the “Percent Competition DOR” value (DOR (δ opioid receptor); PDSP primary screening) was 5%, the inhibition at 10 µM (DOR (δ opioid receptor)) was 5% and the “Cell viability (%) RAW macrophages 50 μM” value (RAW macrophages) was 81 ± 10%. The “toxicity at 50 μM (in words)” value (RAW macrophages) was “no significant toxicity”, the “Percent Competition 5-HT7” value (5-HT7) was −5% and the “sensorimotor deficits on the rotarod” value (Swiss Webster mice) was “did not cause any sensorimotor deficits”. For the same compound, the inhibition at 10 µM (Mouse microglia) was 66 ± 13%, the inhibition at 50 µM (Mouse microglia) was 96 ± 13% and the “NO production of activated microglia (in words)” value (Mouse microglia; dexamethasone 100 nM, GABA 1 μM, MP-IV-010 50 μM, GL-II-33 in the library screen) was “significant reduction”.
